The values that follow are results of earlier work, collected in patent US8071623B2, “Amide substituted indazoles as poly(ADP-ribose)polymerase(PARP) inhibitors” (Instituto di Ricerche di Biologia Molecolare P. Angeletti …, priority 2007, dated 2011).

The series has as its system ischemia and reperfusion of the heart. Conditions: rabbits.

On to `NC(=O)c1cccc(N)c1` [3-amino-benzamide], for which the “reductions in infarct size in the heart” value (single injection 10 mg/kg, one minute before occlusion or one minute before reperfusion) is 32-42%.
In the case of `Oc1cccc2c(O)nccc12` [1,5-dihydroxyisoquinoline], the reduced infarct size (single injection 1 mg/kg) was 38-48%.
